Measurements: ChEMBL document CHEMBL1221272, “Discovery and structure-activity relationships of a series of pyroglutamic acid amide antagonists of the P2X7 receptor” (Bioorg Med Chem Lett, 2010)
≈ marks a conversion by molar mass, not a printed value. Calls of active or inactive are those of the source. The calls are words filed in the database; no cut-off is given here.

Tests used:
P2X purinoceptor 7 [1] = target: T1, P2X purinoceptor 7 (Rattus norvegicus, UniProt Q64663); assay: Inhibition of rat P2X7 receptor by ethidium bromide release assay
T1 sequence (Q64663 whole entry): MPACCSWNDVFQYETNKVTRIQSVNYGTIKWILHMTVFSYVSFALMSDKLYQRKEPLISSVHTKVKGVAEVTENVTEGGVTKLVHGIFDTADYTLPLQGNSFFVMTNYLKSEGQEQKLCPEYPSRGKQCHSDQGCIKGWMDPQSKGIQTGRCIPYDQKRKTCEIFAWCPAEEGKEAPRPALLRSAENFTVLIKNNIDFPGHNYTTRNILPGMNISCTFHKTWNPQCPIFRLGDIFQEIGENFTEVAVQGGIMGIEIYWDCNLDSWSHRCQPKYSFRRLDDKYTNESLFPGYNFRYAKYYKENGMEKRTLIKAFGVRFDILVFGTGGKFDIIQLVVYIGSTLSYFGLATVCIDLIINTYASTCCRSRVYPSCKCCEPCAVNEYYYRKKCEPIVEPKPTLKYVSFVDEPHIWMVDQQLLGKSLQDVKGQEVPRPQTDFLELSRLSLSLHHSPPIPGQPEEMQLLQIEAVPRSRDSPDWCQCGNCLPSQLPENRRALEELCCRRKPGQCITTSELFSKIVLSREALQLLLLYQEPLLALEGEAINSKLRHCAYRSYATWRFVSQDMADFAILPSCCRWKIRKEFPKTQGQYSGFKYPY

[2] = Lipophilicity, log D of the compound at pH 7.4; format: physicochemical; settings: buffer
P2X purinoceptor 7 [3] = target: T2, P2X purinoceptor 7 (Homo sapiens, UniProt Q99572); assay: Inhibition of human P2X7 receptor by ethidium bromide release assay
T2 sequence (Q99572 whole entry): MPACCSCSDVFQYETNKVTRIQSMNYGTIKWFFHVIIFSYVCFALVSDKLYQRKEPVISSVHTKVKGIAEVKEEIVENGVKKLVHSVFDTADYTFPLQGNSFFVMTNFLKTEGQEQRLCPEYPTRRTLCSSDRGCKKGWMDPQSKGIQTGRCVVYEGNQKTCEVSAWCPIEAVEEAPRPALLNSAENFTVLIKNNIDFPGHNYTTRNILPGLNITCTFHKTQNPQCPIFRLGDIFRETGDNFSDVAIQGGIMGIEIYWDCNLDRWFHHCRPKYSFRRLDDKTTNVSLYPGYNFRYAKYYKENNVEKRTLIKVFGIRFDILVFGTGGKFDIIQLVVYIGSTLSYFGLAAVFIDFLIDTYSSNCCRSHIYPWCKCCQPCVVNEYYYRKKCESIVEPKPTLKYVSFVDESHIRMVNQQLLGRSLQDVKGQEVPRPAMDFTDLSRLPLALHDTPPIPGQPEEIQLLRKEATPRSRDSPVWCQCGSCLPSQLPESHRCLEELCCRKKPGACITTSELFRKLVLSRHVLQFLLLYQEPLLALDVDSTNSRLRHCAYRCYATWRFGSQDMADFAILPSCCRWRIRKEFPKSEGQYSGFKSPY

Liver microsomes [4] = assay: Intrinsic clearance in rat liver microsome; format: ADME
[5] = Half life in rat at 1 mg/kg, iv for 1 hrs; format: ADME, organism-based; parameters: dose 1 mg/kg, route intravenous; settings: in vivo
Brain = assay: Drug level in rat brain at 50 mg/kg, po; format: ADME, organism-based; parameters: dose 50 mg/kg, route oral; settings: in vivo, read-out: Drug uptake
Liver microsomes [6] = assay: Intrinsic clearance in human liver microsome; format: ADME
Plasma = assay: Drug level in rat plasma at 50 mg/kg, po; format: ADME, organism-based; parameters: dose 50 mg/kg, route oral; settings: in vivo, read-out: Drug uptake
[7] = Oral bioavailability in rat at 3 mg/kg for 1 hrs; format: ADME, organism-based; settings: in vivo
[8] = Blood clearance in rat at 1 mg/kg, iv for 1 hrs; format: ADME, organism-based; parameters: dose 1 mg/kg, route intravenous
[9] = Cmax in rat at 3 mg/kg, po for 1 hrs; format: ADME, organism-based; parameters: dose 3 mg/kg, route oral; settings: in vivo
[10] = Volume of distribution at steady state in rat at 1 mg/kg, iv for 1 hrs; format: ADME, organism-based; parameters: dose 1 mg/kg, route intravenous; settings: in vivo, read-out: Vdss
Rattus norvegicus [11] = assay: AUC in rat at 3 mg/kg, po for 1 hrs; format: ADME, organism-based, Plasma; parameters: dose 3 mg/kg, route oral; settings: in vivo
Rattus norvegicus [12] = assay: Antiallodynic activity in rat chronic constriction injury model assessed as nerve injury-induced allodynia at 20 mg/kg, po bid measured post dose on day 1 of 8 days treatment; format: functional, organism-based; parameters: dose 20 mg/kg
Rattus norvegicus [13] = assay: Antiallodynic activity in rat chronic constriction injury model assessed as nerve injury-induced allodynia at 20 mg/kg, po bid measured post dose on day 1 of 8 days treatment
[14] = Drug level in brain of rat chronic constriction injury model at 20 mg/kg, po bid for 8 days measured on last day; format: ADME, organism-based; parameters: dose 20 mg/kg, route oral
[15] = Drug level in plasma of rat chronic constriction injury model at 20 mg/kg, po bid for 8 days measured on last day; format: ADME, organism-based; parameters: dose 20 mg/kg, route oral
[16] = Solubility of the compound; format: physicochemical
[17] = Tmax in rat at 3 mg/kg, po for 1 hrs; format: ADME, organism-based; parameters: dose 3 mg/kg, route oral; settings: in vivo
Rattus norvegicus [18] = assay: Antiinflammatory activity in rat assessed as inhibition of FCA-induced hypersensitivity at 20 and 50 mg/kg, po bid for 5 days; format: functional, organism-based; parameters: dose 50 mg/kg

Compound: CC(C)N1C(=O)CCC1C(=O)NCc1ccc(F)cc1Cl (stereo not drawn)
- IC50 (P2X purinoceptor 7 [1]): > 10000 nM
- logD [2]: 2.6
- IC50 (P2X purinoceptor 7 [3]): 316 nM

Compound: Cc1nn(-c2ccccc2)c(C)c1CC(=O)NCc1ccc(F)cc1Cl
- CL (Liver microsomes [4]): 46 mL/min/g
- logD [2]: 3.4

Compound: CN1C(=O)CC[C@H]1C(=O)NCc1cccc(C(F)(F)F)c1Cl [GSK1482160]
- half-life [5]: 1.5 h
- concentration (Brain): 26.7 µM
- CL (Liver microsomes [6]): < 0.5 mL/min/g
- concentration (Plasma): 12.9 µM
- bioavailability [7]: 65%
- clearance [8]: 9 mL/min/kg
- IC50 (P2X purinoceptor 7 [1]): 316 nM
- Cmax [9]: 2.45 µM
- Vd [10]: 1.1 L/kg
- AUC (Rattus norvegicus [11]): 73 kg·min/L
- Activity (Rattus norvegicus [12]): Active
- logD [2]: 1.9
- Activity (Rattus norvegicus [13]): Active
- concentration at 192 h [14]: 3.36 µM
- concentration at 192 h [15]: 5.91 µM
- IC50 (P2X purinoceptor 7 [3]): 3.16 nM
- solubility [16]: 970 µg/mL (≈ 2900 µM)
- Tmax [17]: 1 h

Compound: CCN1CCC[C@H]1C(=O)NCc1ccc(F)cc1Cl
- IC50 (P2X purinoceptor 7 [3]): < 1000 nM

Compound: O=C(NCc1ccc(F)cc1Cl)[C@@H]1CCC(=O)N1C1CCCC1
- IC50 (P2X purinoceptor 7 [3]): 501 nM

Compound: Cc1ccc(-c2cc(C(F)(F)F)nn2-c2ccc(S(N)(=O)=O)cc2)cc1
- Activity (Rattus norvegicus [18]): inactive

Compound: CN(Cc1ccc(Cl)cc1Cl)C(=O)[C@@H]1CCC(=O)N1C
- IC50 (P2X purinoceptor 7 [3]): < 1000 nM

Compound: CCN1C(=O)CC[C@H]1C(=O)NCc1ccc(F)cc1Cl
- CL (Liver microsomes [4]): < 0.5 mL/min/g
- IC50 (P2X purinoceptor 7 [3]): 31.6 nM

Compound: O=C1CC[C@@H](C(=O)NCc2ccc(F)cc2Cl)N1
- IC50 (P2X purinoceptor 7 [3]): < 1000 nM

Compound: CCCN1C(=O)CC[C@H]1C(=O)NCc1ccc(F)cc1Cl
- IC50 (P2X purinoceptor 7 [3]): 158 nM

Compound: O=C(NCc1ccc(F)cc1Cl)[C@@H]1CCC(=O)N1C1CCC1
- CL (Liver microsomes [4]): 2.3 mL/min/g

Compound: O=C(NCc1ccc(F)cc1Cl)[C@@H]1CCC(=O)N1c1ccccc1
- IC50 (P2X purinoceptor 7 [3]): 794 nM

Compound: CCN1C(=O)CC[C@@H]1C(=O)NCc1ccc(F)cc1Cl
- IC50 (P2X purinoceptor 7 [3]): 158 nM

Compound: Cc1n[nH]c(C)c1CC(=O)NCc1ccc(Cl)cc1Cl
- CL (Liver microsomes [4]): 1.3 mL/min/g
- logD [2]: 2.7

Compound: CC(C)CN1C(=O)CC[C@H]1C(=O)NCc1ccc(F)cc1Cl
- IC50 (P2X purinoceptor 7 [3]): 398 nM

Compound: CC(=O)N1CCC[C@H]1C(=O)NCc1ccc(F)cc1Cl
- IC50 (P2X purinoceptor 7 [3]): 100 nM

Compound: CCN1C(=O)CC[C@H]1C(=O)NCc1ccccc1Cl
- IC50 (P2X purinoceptor 7 [3]): 631 nM

Compound: CCN1C(=O)CC[C@H]1C(=O)NCc1ccccc1C(F)(F)F
- IC50 (P2X purinoceptor 7 [3]): 631 nM

Compound: CN(C(=O)c1cc(Cl)c(=O)n(Cc2c(Cl)cccc2Cl)c1)c1ccccc1
- IC50 (P2X purinoceptor 7 [1]): 316 nM
- CL (Liver microsomes [4]): > 50 mL/min/g
- logD [2]: 4.4
- IC50 (P2X purinoceptor 7 [3]): 126 nM

Compound: CCN1C(=O)CC[C@H]1C(=O)NCc1ccc(Cl)cc1
- IC50 (P2X purinoceptor 7 [3]): 631 nM

Compound: CCN1C(=O)CC[C@H]1C(=O)NCc1ccccc1OC
- IC50 (P2X purinoceptor 7 [3]): < 1000 nM

Compound: CC(C)N1C(=O)CC[C@H]1C(=O)NCc1ccc(F)cc1Cl
- IC50 (P2X purinoceptor 7 [1]): 1580 nM
- IC50 (P2X purinoceptor 7 [3]): 100 nM

Compound: CN1C(=O)CC[C@H]1C(=O)NCc1ccc(F)cc1Cl
- IC50 (P2X purinoceptor 7 [3]): 100 nM

Compound: CCN1C(=O)CC[C@H]1C(=O)NCC1CCCCC1
- IC50 (P2X purinoceptor 7 [3]): < 1000 nM

Compound: CCN1C(=O)CC[C@H]1C(=O)NCc1cccc(C(F)(F)F)c1
- IC50 (P2X purinoceptor 7 [3]): 100 nM

Compound: CCN1C(=O)CC[C@H]1C(=O)NCC12CC3CC(CC(C3)C1)C2
- IC50 (P2X purinoceptor 7 [3]): 79.4 nM

Compound: CCN1C(=O)CC[C@H]1C(=O)NCc1ccccc1
- IC50 (P2X purinoceptor 7 [3]): < 1000 nM
